Like-named read-outs stand apart in the source and are kept apart here.
What was measured:
Assay type in all cases: cell-based
[1] = molecular target: T1, GIP-R (Homo sapiens, UniProt P48546); experiment: HitHunter cAMP assay (GIP-R); settings: cAMP; for Emax: read-out: (Emax) GIP-R
T1 sequence (P48546 22-466): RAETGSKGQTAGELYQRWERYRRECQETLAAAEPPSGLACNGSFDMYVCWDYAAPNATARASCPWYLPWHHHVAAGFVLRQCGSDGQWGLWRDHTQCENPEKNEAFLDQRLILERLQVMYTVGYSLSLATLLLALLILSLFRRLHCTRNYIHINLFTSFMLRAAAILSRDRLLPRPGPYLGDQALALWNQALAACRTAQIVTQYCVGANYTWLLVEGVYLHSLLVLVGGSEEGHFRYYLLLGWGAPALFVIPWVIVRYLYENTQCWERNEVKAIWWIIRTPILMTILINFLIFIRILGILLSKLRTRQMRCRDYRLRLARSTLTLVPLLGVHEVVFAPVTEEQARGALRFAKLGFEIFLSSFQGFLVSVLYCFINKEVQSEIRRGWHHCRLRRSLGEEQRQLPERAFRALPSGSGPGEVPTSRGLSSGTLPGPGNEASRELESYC
Summary of the method: (§1)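 cAMP accumulation read by luminescent HitHunter immunocompetition after 30 min room-temperature agonist stimulation. Agonists tested as 22-point twofold dilutions, in duplicate, on 10,000 cells/well in HBSS containing 625 μM IBMX, 10 mM HEPES and 0.2% BSA.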

[2] = molecular target: T2, GLP-1R (Homo sapiens, UniProt P43220); experiment: PathHunter β-arrestin assay
T2 sequence (P43220 24-463): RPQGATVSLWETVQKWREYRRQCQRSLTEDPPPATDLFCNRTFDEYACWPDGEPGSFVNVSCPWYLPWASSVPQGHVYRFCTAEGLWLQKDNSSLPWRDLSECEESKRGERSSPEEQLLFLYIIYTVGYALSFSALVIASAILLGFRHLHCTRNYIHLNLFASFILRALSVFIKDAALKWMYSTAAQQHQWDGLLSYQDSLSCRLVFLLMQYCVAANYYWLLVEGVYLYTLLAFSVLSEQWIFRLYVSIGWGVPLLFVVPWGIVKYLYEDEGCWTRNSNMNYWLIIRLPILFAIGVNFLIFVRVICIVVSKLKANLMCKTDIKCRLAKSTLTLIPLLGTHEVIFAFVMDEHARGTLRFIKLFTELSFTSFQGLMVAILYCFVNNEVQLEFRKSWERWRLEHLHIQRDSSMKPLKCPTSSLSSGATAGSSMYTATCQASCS
Summary of the method: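 β-Arrestin recruitment measured by PathHunter enzyme-fragment luminescence, read after 3 h dark incubation at room temperature with detection solution. Beforehand, agonist in a 22-point 2-fold series was applied in duplicate for 90 min at 37 °C to 5,000 cells/well in BSA-containing (0.2%) medium.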

[3] = molecular target: T2, GLP-1R; experiment: HitHunter cAMP assay (GLP-1R); settings: cAMP; for Emax: read-out: (Emax) GLP-1R
Summary of the method: as §1

[4] = read-out: EC50 GIP-R/nM, Table 3
[5] = read-out: EC50 GIP-R/nM, Table 3A

Compound: CC[C@H](C)[C@H](NC(=O)[C@H](CO)NC(=O)[C@H](Cc1ccc(O)cc1)NC(=O)[C@H](CC(=O)O)NC(=O)[C@H](CO)NC(=O)[C@@H](NC(=O)[C@H](Cc1ccccc1)NC(=O)[C@@H](NC(=O)CNC(=O)[C@H](CCC(=O)O)NC(=O)CSCC(=O)NCCN1C(=O)c2ccncc2C1=O)[C@@H](C)O)[C@@H](C)O)C(=O)N[C@@H](Cc1ccc(O)cc1)C(=O)N[C@@H](CC(C)C)C(=O)N[C@@H](CC(=O)O)C(=O)N[C@@H](CCCCN)C(=O)N[C@@H](CCC(N)=O)C(=O)N[C@@H](C)C(=O)N[C@@H](C)C(=O)NC(C)(C)C(=O)N[C@@H](CCC(=O)O)C(=O)N[C@@H](Cc1ccccc1)C(=O)N[C@H](C(=O)N[C@@H](CC(N)=O)C(=O)N[C@@H](Cc1c[nH]c2ccccc12)C(=O)N[C@@H](CC(C)C)C(=O)N[C@@H](CC(C)C)C(=O)N[C@@H](C)C(=O)NCC(=O)NCC(=O)N1CCC[C@H]1C(=O)N[C@@H](CO)C(=O)N[C@@H](CO)C(=O)NCC(=O)N[C@@H](C)C(=O)N1CCC[C@H]1C(=O)N1CCC[C@H]1C(=O)N1CCC[C@H]1C(=O)N[C@@H](CO)C(=O)N[C@@H](CCCCN)C(N)=O)C(C)C [Compound 157]
- Emax ([1]; Table 3): 103 to 105%
- Emax ([1]; Table 3A): 103 to 105%
- EC50 [1, 4]: 0.1 to 10 nM
- EC50 [1, 5]: 0.1 to 10 nM
- EC50 [2]: > 1000 nM
- Emax ([3]; Table 3): 93 to 95%
- Emax ([3]; Table 3A): 93 to 95%
- EC50 ([3]; read-out: EC50 GLP-1R/nM, Table 3): 1 to 100 nM
- EC50 ([3]; read-out: EC50 GLP-1R/nM, Table 3A): 1 to 100 nM

Compound: CC[C@H](C)[C@H](NC(=O)[C@H](CO)NC(=O)[C@H](Cc1ccc(O)cc1)NC(=O)[C@H](CC(=O)O)NC(=O)[C@H](CO)NC(=O)[C@@H](NC(=O)[C@H](Cc1ccccc1)NC(=O)[C@@H](NC(=O)CNC(=O)[C@H](CCC(=O)O)NC(=O)CSCC(=O)NCCN1C(=O)c2cccc3cccc(c23)C1=O)[C@@H](C)O)[C@@H](C)O)C(=O)N[C@@H](Cc1ccc(O)cc1)C(=O)N[C@@H](CC(C)C)C(=O)N[C@@H](CC(=O)O)C(=O)N[C@@H](CCCCN)C(=O)N[C@@H](CCC(N)=O)C(=O)N[C@@H](C)C(=O)N[C@@H](C)C(=O)NC(C)(C)C(=O)N[C@@H](CCC(=O)O)C(=O)N[C@@H](Cc1ccccc1)C(=O)N[C@H](C(=O)N[C@@H](CC(N)=O)C(=O)N[C@@H](Cc1c[nH]c2ccccc12)C(=O)N[C@@H](CC(C)C)C(=O)N[C@@H](CC(C)C)C(=O)N[C@@H](C)C(=O)NCC(=O)NCC(=O)N1CCC[C@H]1C(=O)N[C@@H](CO)C(=O)N[C@@H](CO)C(=O)NCC(=O)N[C@@H](C)C(=O)N1CCC[C@H]1C(=O)N1CCC[C@H]1C(=O)N1CCC[C@H]1C(=O)N[C@@H](CO)C(=O)N[C@@H](CCCCN)C(N)=O)C(C)C [Compound 158]
- Emax ([1]; Table 3): 104 to 107%
- EC50 ([1]; Table 3, read-out: EC50 GIP-R/nM): 0.1 to 1 nM
- Emax ([1]; Table 3A): 104 to 107%
- EC50 ([1]; Table 3A, read-out: EC50 GIP-R/nM): 0.1 to 1 nM
- EC50 ([2]; PathHunter β-arrestin assay, read-out: β-arrestin activity EC50): > 1000 nM
- Emax ([3]; Table 3): 31 to 38%
- EC50 ([3]; Table 3, read-out: EC50 GLP-1R/nM): 10 to 100 nM
- Emax ([3]; Table 3A): 31 to 38%
- EC50 ([3]; Table 3A, read-out: EC50 GLP-1R/nM): 10 to 100 nM

Compound: CC[C@H](C)[C@H](NC(=O)[C@H](CO)NC(=O)[C@H](Cc1ccc(O)cc1)NC(=O)[C@H](CC(=O)O)NC(=O)[C@H](CO)NC(=O)[C@@H](NC(=O)[C@H](Cc1ccccc1)NC(=O)[C@@H](NC(=O)CNC(=O)[C@H](CCC(=O)O)NC(=O)CSCC(=O)NCCN1C(=O)[C@H]2CCCC[C@H]2C1=O)[C@@H](C)O)[C@@H](C)O)C(=O)N[C@@H](Cc1ccc(O)cc1)C(=O)N[C@@H](CC(C)C)C(=O)N[C@@H](CC(=O)O)C(=O)N[C@@H](CCCCN)C(=O)N[C@@H](CCC(N)=O)C(=O)N[C@@H](C)C(=O)N[C@@H](C)C(=O)NC(C)(C)C(=O)N[C@@H](CCC(=O)O)C(=O)N[C@@H](Cc1ccccc1)C(=O)N[C@H](C(=O)N[C@@H](CC(N)=O)C(=O)N[C@@H](Cc1c[nH]c2ccccc12)C(=O)N[C@@H](CC(C)C)C(=O)N[C@@H](CC(C)C)C(=O)N[C@@H](C)C(=O)NCC(=O)NCC(=O)N1CCC[C@H]1C(=O)N[C@@H](CO)C(=O)N[C@@H](CO)C(=O)NCC(=O)N[C@@H](C)C(=O)N1CCC[C@H]1C(=O)N1CCC[C@H]1C(=O)N1CCC[C@H]1C(=O)N[C@@H](CO)C(=O)N[C@@H](CCCCN)C(N)=O)C(C)C [Compound 159]
- EC50 ([1]; EC50 GIP-R/nM, Table 3): 1 to 10 nM
- EC50 ([1]; EC50 GIP-R/nM, Table 3A): 1 to 10 nM
- Emax ([1]; Table 3): 89 to 92%
- Emax ([1]; Table 3A): 89 to 92%
- EC50 [2]: > 1000 nM
- EC50 ([3]; EC50 GLP-1R/nM, Table 3): 10 to 100 nM
- EC50 ([3]; EC50 GLP-1R/nM, Table 3A): 10 to 100 nM
- Emax ([3]; Table 3): 87 to 91%
- Emax ([3]; Table 3A): 87 to 91%

Compound: CC[C@H](C)[C@H](NC(=O)[C@H](CO)NC(=O)[C@H](Cc1ccc(O)cc1)NC(=O)[C@H](CC(=O)O)NC(=O)[C@H](CO)NC(=O)[C@@H](NC(=O)[C@H](Cc1ccccc1)NC(=O)[C@@H](NC(=O)CNC(=O)[C@H](CCC(=O)O)NC(=O)CSCC(=O)NCCN1C(=O)c2cccnc2C1=O)[C@@H](C)O)[C@@H](C)O)C(=O)N[C@@H](Cc1ccc(O)cc1)C(=O)N[C@@H](CC(C)C)C(=O)N[C@@H](CC(=O)O)C(=O)N[C@@H](CCCCN)C(=O)N[C@@H](CCC(N)=O)C(=O)N[C@@H](C)C(=O)N[C@@H](C)C(=O)NC(C)(C)C(=O)N[C@@H](CCC(=O)O)C(=O)N[C@@H](Cc1ccccc1)C(=O)N[C@H](C(=O)N[C@@H](CC(N)=O)C(=O)N[C@@H](Cc1c[nH]c2ccccc12)C(=O)N[C@@H](CC(C)C)C(=O)N[C@@H](CC(C)C)C(=O)N[C@@H](C)C(=O)NCC(=O)NCC(=O)N1CCC[C@H]1C(=O)N[C@@H](CO)C(=O)N[C@@H](CO)C(=O)NCC(=O)N[C@@H](C)C(=O)N1CCC[C@H]1C(=O)N1CCC[C@H]1C(=O)N1CCC[C@H]1C(=O)N[C@@H](CO)C(=O)N[C@@H](CCCCN)C(N)=O)C(C)C [Compound 160]
- EC50 ([1]; EC50 GIP-R/nM, Table 3): 0.1 to 1 nM
- EC50 ([1]; EC50 GIP-R/nM, Table 3A): 0.1 to 1 nM
- Emax ([1]; Table 3): 109 to 113%
- Emax ([1]; Table 3A): 109 to 113%
- EC50 [2]: > 1000 nM
- EC50 ([3]; EC50 GLP-1R/nM, Table 3): 1 to 10 nM
- EC50 ([3]; EC50 GLP-1R/nM, Table 3A): 1 to 10 nM
- Emax ([3]; Table 3): 85 to 95%
- Emax ([3]; Table 3A): 85 to 95%

Compound: CC[C@H](C)[C@H](NC(=O)[C@H](CO)NC(=O)[C@H](Cc1ccc(O)cc1)NC(=O)[C@H](CC(=O)O)NC(=O)[C@H](CO)NC(=O)[C@@H](NC(=O)[C@H](Cc1ccccc1)NC(=O)[C@@H](NC(=O)CNC(=O)[C@H](CCC(=O)O)NC(=O)CSCC(=O)NCCN1C(=O)c2ccc(Cl)cc2C1=O)[C@@H](C)O)[C@@H](C)O)C(=O)N[C@@H](Cc1ccc(O)cc1)C(=O)N[C@@H](CC(C)C)C(=O)N[C@@H](CC(=O)O)C(=O)N[C@@H](CCCCN)C(=O)N[C@@H](CCC(N)=O)C(=O)N[C@@H](C)C(=O)N[C@@H](C)C(=O)NC(C)(C)C(=O)N[C@@H](CCC(=O)O)C(=O)N[C@@H](Cc1ccccc1)C(=O)N[C@H](C(=O)N[C@@H](CC(N)=O)C(=O)N[C@@H](Cc1c[nH]c2ccccc12)C(=O)N[C@@H](CC(C)C)C(=O)N[C@@H](CC(C)C)C(=O)N[C@@H](C)C(=O)NCC(=O)NCC(=O)N1CCC[C@H]1C(=O)N[C@@H](CO)C(=O)N[C@@H](CO)C(=O)NCC(=O)N[C@@H](C)C(=O)N1CCC[C@H]1C(=O)N1CCC[C@H]1C(=O)N1CCC[C@H]1C(=O)N[C@@H](CO)C(=O)N[C@@H](CCCCN)C(N)=O)C(C)C [Compound 161]
- Emax ([1]; Table 3): 58 to 107%
- Emax ([1]; Table 3A): 58 to 107%
- EC50 [1, 4]: 1 to 100 nM
- EC50 [1, 5]: 1 to 100 nM
- EC50 [2]: > 1000 nM
- EC50 ([3]; EC50 GLP-1R/nM, Table 3): 10 to 100 nM
- EC50 ([3]; EC50 GLP-1R/nM, Table 3A): 10 to 100 nM
- Emax ([3]; Table 3): 89 to 101%
- Emax ([3]; Table 3A): 89 to 101%

Compound: CC[C@H](C)[C@H](NC(=O)[C@H](CO)NC(=O)[C@H](Cc1ccc(O)cc1)NC(=O)[C@H](CC(=O)O)NC(=O)[C@H](CO)NC(=O)[C@@H](NC(=O)[C@H](Cc1ccccc1)NC(=O)[C@@H](NC(=O)CNC(=O)[C@H](CCC(=O)O)NC(=O)CSCC(=O)NCCN1C(=O)c2cccc(Cl)c2C1=O)[C@@H](C)O)[C@@H](C)O)C(=O)N[C@@H](Cc1ccc(O)cc1)C(=O)N[C@@H](CC(C)C)C(=O)N[C@@H](CC(=O)O)C(=O)N[C@@H](CCCCN)C(=O)N[C@@H](CCC(N)=O)C(=O)N[C@@H](C)C(=O)N[C@@H](C)C(=O)NC(C)(C)C(=O)N[C@@H](CCC(=O)O)C(=O)N[C@@H](Cc1ccccc1)C(=O)N[C@H](C(=O)N[C@@H](CC(N)=O)C(=O)N[C@@H](Cc1c[nH]c2ccccc12)C(=O)N[C@@H](CC(C)C)C(=O)N[C@@H](CC(C)C)C(=O)N[C@@H](C)C(=O)NCC(=O)NCC(=O)N1CCC[C@H]1C(=O)N[C@@H](CO)C(=O)N[C@@H](CO)C(=O)NCC(=O)N[C@@H](C)C(=O)N1CCC[C@H]1C(=O)N1CCC[C@H]1C(=O)N1CCC[C@H]1C(=O)N[C@@H](CO)C(=O)N[C@@H](CCCCN)C(N)=O)C(C)C [Compound 162]
- Emax ([1]; Table 3): 103 to 107%
- Emax ([1]; Table 3A): 103 to 107%
- EC50 [1, 4]: 0.1 to 10 nM
- EC50 [1, 5]: 0.1 to 10 nM
- EC50 [2]: > 1000 nM
- EC50 ([3]; EC50 GLP-1R/nM, Table 3): 10 to 100 nM
- EC50 ([3]; EC50 GLP-1R/nM, Table 3A): 10 to 100 nM
- Emax ([3]; Table 3): 42 to 46%
- Emax ([3]; Table 3A): 42 to 46%
